Data: patent publication US7825151B2, “Hexahydro-cyclooctyl pyrazole cannabinoid modulators” (priority 2005, dated 2010)
pIC50: −log10 of the molar value. Several values for one entry are separate records, joined by “and”; a condition that tells them apart may be missing. Equal values may be shown once.

Tests used:
[1] = tested on: oil of mustard induced colitis; assay: Oil of mustard induced colitis model; assay type: in vivo, Male CD-1 mice; conditions: 5 mg/kg oral; for % Inh (Macro), % inhibition of colitis: macroscopic score; for % Inh (Micro), % inhibition of colitis: microscopic score
Text: In the distal colon, the oil of mustard colitis model is characterized by a discontinuous pattern of mucosal epithelial damage, submucosal edema, infiltration of inflammatory cells (including macrophages, neutrophils and lymphocytes) into the mucosa and submucosa, increased wet weight of the colon, shrinkage of the colon length, diarrhea and apparent inflammation (see, Kimball E. S., Palmer J. M., D'Andrea M. R., Hornby P. J. and Wade P. R., Acute colitis induction by oil of mustard results in later development of an IBS-like accelerated upper GI transit in mice, Am. J. Physiol. Gastrointest. Liver Physiol., 2005, 288: G 1266-1273).
Male CD-1 mice (Charles River Laboratories, Kingston, N.C.) (9-11 weeks old) and fresh oil of mustard (OM) (allyl isothiocyanate, 98% purity, Sigma-Aldrich St. Louis, Mo.) were used.
The mice (9 per treatment group) were briefly anesthetized with ketamine/xylasine (Sigma, St. Louis, Mo.) and a solution of 0.5% OM in 30% ethanol (50 μL) was administered intracolonically (to a depth of 4 cm) via syringe (equipped with a ball-tipped 22 G needle).
A test compound was orally administered one day prior to colitis induction for assessing a prophylactic regimen or one day post-induction for assessing a therapeutic regimen. A test compound was orally administered daily thereafter. Two days after OM administration, the last test compound dose was administered.
Three days after OM administration, the animals were sacrificed. The colons were resected, examined for signs of inflammation, weighed after removing fecal contents and the length from the aboral end of the cecum to the anus was measured. The fecal contents were examined for signs of diarrhea. The distal colon between the 1st and the 4th centimeter was removed and placed in 10% neutral buffered formalin for histological analysis.
The macroscopic observations of colon inflammation (a measure of colon damage), colon weight and length and stool consistency and appearance were assigned a score and used to evaluate colitis severity.
The four observation scores for each colon were combined, whereby a combined score of 0 represents a normal colon and a combined score of 15 represents a maximally affected colon. Statistical analyses were performed in Graphpad Prism 4.0 using ANOVA.
Histological analyses of tissues consisted of staining paraffin-embedded tissue sections with hematoxylin-eosin dye. The tissues were examined using light microscopy by an investigator who was blinded to the sample groups. […]
The Macroscopic Score and Microscopic Score results for each treatment group in the prophylactic and therapeutic regimens were each combined into a mean score and expressed as % inhibition of colitis (% Inh). […]

CB2 receptor = biological target: T1, CB2 receptor (Homo sapiens, UniProt P34972); assay: Binding assay for CB2 ([3H]-CP-55,940 displacement, SK-N-MC membranes)
T1 construct: expressed in transfected cells; host or cells: SK-N-MC cells, stably transfected with pcDNA3 CB-2 (human)
Method: The human CB1 and CB2 receptors were stably expressed in SK-N-MC cells transfected with pcDNA3 CB-1 (human) or pcDNA3 CB-2 (human). The cells were grown in T-180 cell culture flasks under standard cell culture conditions at 37° C. in a 5% CO2 atmosphere. The cells were harvested by trysinization and homogenized in a homogenization buffer (10 mM Tris, 0.2 mM MgCl2, 5 mM KCl, with protease inhibitors aprotinin, leupeptin, pepstatin A and bacitracin) and centrifuged (2000 g). The supernatant was then centrifuged in 2M sucrose (31,300 g) to produce a semi-purified membrane pellet. The pellet was resuspended in homogenization and stored at −80° C.
On the day of the assay, the pellet was thawed on ice and diluted in assay buffer (50 mM Tris-HCl, 5 mM MgCl2, 2.5 mM EDTA, 0.5 mg/mL fatty acid free bovine serum albumin, pH 7.5). The diluted membrane pellet was added with buffer, either a test compound or vehicle standard and the radioligand [H]^3+-CP-55,940 (0.2 nM) to the wells of a 96-well polypropylene plate. Non-specific binding was measured in wells containing WIN 55,212 (10 uM). The plate was covered and incubated for 90 minutes at 30° C. The contents were then aspirated onto a Packard Unifilter GF/C filter bottom plate prewet with 0.5% polyethyleneimine. The wells of the polypropylene plate were rinsed and aspirated seven times with a 0.9% saline-0.5% Tween 20 solution. The Unifilter plate was dried, scintillation cocktail was added to each well and the counts representing binding were quantitated in a TopCount scintillation counter.
For compounds tested, an IC50 binding value was obtained from percent inhibition studies in which various test concentrations were used. The binding value was calculated by linear regression.
For compounds without an IC50 binding value, the percent inhibition (%) was obtained at a test concentration of ^(1)10 μM, ^(2)1 μM, ^(3)0.2 μM, ^(4)0.003 μM, ^(5) represents an average value.

T1 sequence (P34972 whole entry): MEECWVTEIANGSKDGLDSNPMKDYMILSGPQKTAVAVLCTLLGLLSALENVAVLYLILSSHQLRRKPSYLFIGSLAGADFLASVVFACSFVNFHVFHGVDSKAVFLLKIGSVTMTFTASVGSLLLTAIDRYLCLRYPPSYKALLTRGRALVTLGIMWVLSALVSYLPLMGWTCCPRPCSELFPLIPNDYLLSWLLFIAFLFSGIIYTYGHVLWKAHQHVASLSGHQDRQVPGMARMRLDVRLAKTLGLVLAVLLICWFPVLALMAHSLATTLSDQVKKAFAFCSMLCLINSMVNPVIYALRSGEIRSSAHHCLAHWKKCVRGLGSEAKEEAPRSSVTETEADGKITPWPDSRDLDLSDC

Question: What does the source list for `O=C(NCC12CC3CC(CC(C3)C1)C2)c1nn(C2CCCCC2)c2c1CCCCCC2` [Cpd 2, 1-cyclohexyl-4,5,6,7,8,9-hexahydro-1H-cyclooctapyrazole-3-carboxylic acid (adamantan-1-ylmethyl)-amide]?
Answer: % Inh (Macro), % inhibition of colitis ([1]; prophylactic regimen): 42.3 ± 12.6%; % Inh (Micro), % inhibition of colitis ([1]; prophylactic regimen): 74.4 ± 3.8%; % Inh (Macro), % inhibition of colitis ([1]; therapeutic regimen): 38.7 ± 9.1%; % Inh (Micro), % inhibition of colitis ([1]; therapeutic regimen): 66.0 ± 9.8%; pIC50 (CB2 receptor; Cannabinoid CB2 Receptor Binding IC50, radioligand CP-55,940 0.2 nM, SK-N-MC membranes): 9.00 and 8.22 and 8.00; inhibition at 0.003 µM (CB2 receptor; read-out: CB2 receptor binding percent inhibition): 86%
